This assay relates to nude mice, HT29 intrarenal xenograft, tumor weight T/C. Description: NCI In Vivo Anticancer Drug Screen. Data for tumor model HT29;CX-1 Human Adenocarcinoma (MER+) (intrarenal inoculation) in NU/NU Swiss (nude) mice. Conditions: endpoint: mean tumor weight change, higher = larger tumour. On the procedure:
The antitumor activity of compounds was measured in mice bearing transplantable tumors. Survival or tumor size were measured and the results are expressed as the measurement made in the treated group (T) divided by the measurement made in the vehicle treated control group (C). The tumor model used in this assay is HT29;CX-1 Human Adenocarcinoma (MER+) (intrarenal inoculation) in NU/NU Swiss (nude) mice

Where [1] appears, read: dose: 50.0 mg/kg/injection, schedule: Q04DX004 (sc), vehicle: saline with Tween-80.
Setting [2] is: dose: 200.0 mg/kg/injection, schedule: Q04DX004 (sc), vehicle: saline with Tween-80.
Where [3] appears, read: dose: 400.0 mg/kg/injection, schedule: Q04DX004 (sc), vehicle: saline with Tween-80.
Where [4] appears, read: dose: 800.0 mg/kg/injection, schedule: Q04DX004 (sc), vehicle: saline with Tween-80.
The mark [5] stands for this setting: dose: 1600.0 mg/kg/injection, schedule: Q04DX004 (sc), vehicle: saline with Tween-80.
The mark [6] stands for this setting: dose: 300.0 mg/kg/injection, schedule: Q04DX004 (sc), vehicle: Klucel (hydroxypropylcellulose) (HPC).
Where [7] appears, read: dose: 600.0 mg/kg/injection, schedule: Q04DX004 (sc), vehicle: Klucel (hydroxypropylcellulose) (HPC).
[8] abbreviates: dose: 100.0 mg/kg/injection, schedule: Q04DX004 (sc), vehicle: saline with Tween-80.

Several values for one entry are separate records, joined by “and”; a condition that tells them apart may be missing. Equal values may be shown once. Results filed as inconclusive are left out. Starred links: 1 amine or outer side, 2 acyl side, 3 side chain; linkers in the order of their positions; H or OH if unused. Non-standard residues stand in square brackets, D forms with d. Residues, ends and D or L forms follow the SMILES beside them. *: point of attachment. X2 = CCC(=O)CC1CC(C)CC(C(=O)[*:2])N1[*:1]; X1 = CCCCCCCCC(C)C(=O)*; Aib = CC(C)(N)C(=O)O; X3 = CC(CN(C)CCO)N*

As for `CCCCCCCCCCCCCC#CC(=O)O`, the T/C (dose: 37.5 mg/kg/injection, schedule: Q04DX004 (sc), vehicle: saline with Tween-80) is 117 % of control and the T/C (dose: 300.0 mg/kg/injection, schedule: Q04DX004 (sc), vehicle: saline with Tween-80) is 104 % of control.
`Cc1cc(NCCCCCCCNc2cc(C)nc3cc(N)ccc23)c2ccc(N)cc2n1`: the T/C was 32 % of control (dose: 12.5 mg/kg/injection, schedule: Q04DX004 (sc), vehicle: saline with Tween-80); 56 % of control (dose: 25.0 mg/kg/injection, schedule: Q04DX004 (sc), vehicle: saline with Tween-80); 51 % of control under setting [1].
As to `CC1(C)N=C(N)N=C(N)N1c1ccc(CCCCc2ccc(S(=O)(=O)F)cc2Cl)c(Cl)c1`, the T/C was 84 % of control and 100 % of control (dose: 12.5 mg/kg/injection, schedule: Q01DX010 (sc), vehicle: saline); 98 % of control (dose: 50.0 mg/kg/injection, schedule: Q01DX010 (sc), vehicle: saline); 81 % of control (dose: 100.0 mg/kg/injection, schedule: Q01DX010 (sc), vehicle: saline).
Consider `C[n+]1c(/C=N/NC(N)=S)ccc2ccccc21`, for which the T/C was 75 % of control (dose: 150.0 mg/kg/injection, schedule: Q04DX004 (sc), vehicle: saline with Tween-80); 66 % of control (dose: 600.0 mg/kg/injection, schedule: Q04DX004 (sc), vehicle: saline with Tween-80); 72 % of control (dose: 1200.0 mg/kg/injection, schedule: Q04DX004 (sc), vehicle: saline with Tween-80).
Turning to `N[C@@H](Cc1ccc(N(CCCl)CCCl)cc1)C(=O)O`, the T/C (dose: 4.0 mg/kg/injection, schedule: Q04DX004 (ip), vehicle: saline) is 47 % of control; the T/C (dose: 6.0 mg/kg/injection, schedule: Q04DX004 (ip), vehicle: saline) is 9 % of control; the T/C (dose: 9.0 mg/kg/injection, schedule: Q04DX004 (ip), vehicle: saline) is -5 % of control.
Consider `COc1cccc2c1C(=O)c1c(O)c3c(c(O)c1C2=O)C[C@@](O)(/C(C)=N/NC(=O)c1ccccc1)C[C@@H]3OC1CC(N)C(O)C(C)O1` (stereo partly specified), for which the T/C (dose: 18.75 mg/kg/injection, schedule: Q04DX004 (sc), vehicle: water) was 117 % of control and the T/C (dose: 37.5 mg/kg/injection, schedule: Q04DX004 (sc), vehicle: water) is 123 % of control.
For `CCCCCCCCC(C)C(=O)N1CCCC1C(=O)N1C(CC(=O)CC)CC(C)CC1C(=O)NC(C)C(=O)NC(C)(C)C(=O)NC(C)(C)C(=O)NC(C(=O)NC(C)C(=O)NC(C)(C)C(=O)NC(C)(C)C(=O)NC(C)CN(C)CCO)C(C)CC` (stereo unspecified) (X1-P[X2]A[Aib][Aib]IA[Aib][Aib]-X3; configuration not given here), the T/C by setting is: (dose: 1.88 mg/kg/injection, schedule: Q04DX004 (sc), vehicle: Klucel (hydroxypropylcellulose) (HPC)) 94 % of control; (dose: 3.75 mg/kg/injection, schedule: Q04DX004 (sc), vehicle: Klucel (hydroxypropylcellulose) (HPC)) 59 % of control and 67 % of control.
`CC(Oc1ccccc1-c1ccccc1)C(=O)N(C)C` (stereo unspecified): the T/C by setting is: under setting [2], 115 % of control; under setting [3], 63 % of control; under setting [4], 89 % of control; under setting [5], 55 % of control.
On to `COc1ccc2[nH]c3ccc4cc[n+](CCN5CCC(C6CCN(CC[n+]7ccc8ccc9[nH]c%10ccc(OC)cc%10c9c8c7)CC6)CC5)cc4c3c2c1`, for which the T/C was 194 % of control (dose: 150.0 mg/kg/injection, schedule: Q04DX004 (sc), vehicle: Klucel (hydroxypropylcellulose) (HPC)); 189 % of control under setting [6]; 83 % of control under setting [7].
For the molecule `CC1(c2ccc(Cl)cc2)OC(=O)C(=Cc2ccc([N+](=O)[O-])s2)C(=O)O1` (stereo unspecified), the T/C under setting [1] was 34 % of control, the T/C under setting [8] is 53 % of control, the T/C under setting [2] is 77 % of control and the T/C under setting [3] was 60 % of control.
Turning to `O=C(O)c1cc(Cc2ccc(O)c(C(=O)O)c2)ccc1O` (tested in a mixture with another compound), the T/C under setting [6] was 62 % of control; the T/C under setting [7] was 57 % of control; the T/C (dose: 1200.0 mg/kg/injection, schedule: Q04DX004 (sc), vehicle: Klucel (hydroxypropylcellulose) (HPC)) was 114 % of control; the T/C (dose: 2400.0 mg/kg/injection, schedule: Q04DX004 (sc), vehicle: Klucel (hydroxypropylcellulose) (HPC)) was 104 % of control.
With `O=CC(=O)c1ccc(O)cc1`, the T/C (dose: 150.0 mg/kg/injection, schedule: Q04DX004 (sc), vehicle: saline) was 73 % of control; the T/C (dose: 300.0 mg/kg/injection, schedule: Q04DX004 (sc), vehicle: saline) was 67 % of control; the T/C (dose: 600.0 mg/kg/injection, schedule: Q04DX004 (sc), vehicle: saline) is 56 % of control.
On to `COc1cccc2c1C(=O)c1c(O)c3c(c(O)c1C2=O)C[C@@](O)(C(=O)CO)C[C@@H]3OC1CC(N)C(OC)C(C)O1` (stereo partly specified), for which the T/C (dose: 3.13 mg/kg/injection, schedule: Q04DX004 (sc), vehicle: saline) was 207 % of control.
On to `C[C@@](O)(/C=C/[C@H]1CC=CC(=O)O1)[C@@H](C[C@@H](O)\C=C/C=C\C=C\CO)OP(=O)(O)O`, for which the T/C runs as follows: (dose: 9.38 mg/kg/injection, schedule: Q04DX004 (sc), vehicle: saline) 76 % of control; (dose: 18.75 mg/kg/injection, schedule: Q04DX004 (sc), vehicle: saline) 102 % of control; (dose: 37.5 mg/kg/injection, schedule: Q04DX004 (sc), vehicle: saline) 72 % of control.
For the molecule `CC[C@H]1CN2CCc3cc(OC)c(OC)cc3[C@@H]2C[C@@H]1C[C@H]1NCCc2cc(OC)c(OC)cc21`, the T/C is 92 % of control (dose: 1.0 mg/kg/injection, schedule: Q01DX010 (sc), vehicle: saline); 166 % of control (dose: 2.0 mg/kg/injection, schedule: Q01DX010 (sc), vehicle: saline); 90 % of control (dose: 4.0 mg/kg/injection, schedule: Q01DX010 (sc), vehicle: saline).
Regarding `Cc1ccc(S(=O)(=O)NC(=O)OC23COCN2COC3)cc1`, the T/C is, setting by setting: under setting [2], 84 % of control; under setting [4], 153 % of control; under setting [5], 121 % of control.
On to `CCCCOCN(COCCCC)C(C)Cc1ccccc1` (stereo unspecified), for which the T/C is, setting by setting: under setting [8], 110 % of control; under setting [2], 178 % of control; under setting [3], 98 % of control; under setting [4], 97 % of control.
Regarding `CCC1OCC(C(Cl)CCl)O1` (stereo unspecified), the T/C by setting is: (dose: 37.5 mg/kg/injection, schedule: Q01DX014 (sc), vehicle: Klucel (hydroxypropylcellulose) (HPC)) 100 % of control; (dose: 37.5 mg/kg/injection, schedule: Q04DX014 (sc), vehicle: Klucel (hydroxypropylcellulose) (HPC)) 58 % of control; (dose: 75.0 mg/kg/injection, schedule: Q01DX014 (sc), vehicle: Klucel (hydroxypropylcellulose) (HPC)) 193 % of control; (dose: 75.0 mg/kg/injection, schedule: Q04DX014 (sc), vehicle: Klucel (hydroxypropylcellulose) (HPC)) 30 % of control; (dose: 150.0 mg/kg/injection, schedule: Q01DX014 (sc), vehicle: Klucel (hydroxypropylcellulose) (HPC)) 86 % of control; (dose: 150.0 mg/kg/injection, schedule: Q04DX014 (sc), vehicle: Klucel (hydroxypropylcellulose) (HPC)) 1 % of control. Also, the T/C (dose: 300.0 mg/kg/injection, schedule: Q01DX014 (sc), vehicle: Klucel (hydroxypropylcellulose) (HPC)) is 122 % of control; the T/C (dose: 300.0 mg/kg/injection, schedule: Q04DX004 (sc), vehicle: other) is 83 % of control; the T/C (dose: 300.0 mg/kg/injection, schedule: Q04DX014 (sc), vehicle: Klucel (hydroxypropylcellulose) (HPC)) was -30 % of control; the T/C (dose: 600.0 mg/kg/injection, schedule: Q01DX014 (sc), vehicle: Klucel (hydroxypropylcellulose) (HPC)) was 25 % of control; the T/C (dose: 600.0 mg/kg/injection, schedule: Q04DX004 (sc), vehicle: other) was 21 % of control; the T/C (dose: 600.0 mg/kg/injection, schedule: Q04DX014 (sc), vehicle: Klucel (hydroxypropylcellulose) (HPC)) was -99 % of control.
As for `O=C1C(=O)c2ccccc2C(O)=C1CC=C(Cl)Cl`, the T/C by setting is: (dose: 100.0 mg/kg/injection, schedule: Q01DX010 (sc), vehicle: water) 183 % of control; (dose: 400.0 mg/kg/injection, schedule: Q01DX010 (sc), vehicle: water) 74 % of control and 213 % of control.
With `COc1c(C=O)c2c(c(OC)c1OC)-c1ccc(OC)c(=O)cc1[C@@H](NC(C)=O)CC2`, the T/C (dose: 18.75 mg/kg/injection, schedule: Q04DX004 (sc), vehicle: Klucel (hydroxypropylcellulose) (HPC)) is 70 % of control and the T/C (dose: 37.5 mg/kg/injection, schedule: Q04DX004 (sc), vehicle: Klucel (hydroxypropylcellulose) (HPC)) is 71 % of control.
